For one test, the target named is T1, human B1R (Homo sapiens, UniProt P46663).
T1 construct: expressed in transfected cells; host or cells: CHO K1 cells (Chinese hamster ovary), stably transfected
T1 sequence (P46663 1-353): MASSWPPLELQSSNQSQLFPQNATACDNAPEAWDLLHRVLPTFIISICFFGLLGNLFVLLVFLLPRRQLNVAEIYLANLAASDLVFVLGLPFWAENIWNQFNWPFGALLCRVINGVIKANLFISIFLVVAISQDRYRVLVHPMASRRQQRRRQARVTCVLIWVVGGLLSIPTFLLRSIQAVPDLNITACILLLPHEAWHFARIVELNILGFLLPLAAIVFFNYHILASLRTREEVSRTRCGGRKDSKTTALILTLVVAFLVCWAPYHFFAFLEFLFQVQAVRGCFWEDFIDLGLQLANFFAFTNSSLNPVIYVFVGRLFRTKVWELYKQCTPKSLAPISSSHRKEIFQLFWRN
The experiment in a line: FLIPR Ca2+ functional assay, B1R antagonism, human B1R in CHO K1 cells. It is filed as cell-based. Conditions: test substance 10 μM; hB1R CHO K1 cells; agonist Lys-Des-Arg9 bradykinin at EC80; % of maximum achievable inhibition. As for the experimental part: The agonistic or antagonistic action of substances on the bradykinin 1 receptor (B1R) of the human and rat species can be quantified with ectopically expressing cell lines (CHO K1 cells) and with the aid of a Ca^2+-sensitive dye (Fluo-4) using a fluorescent imaging plate reader (FLIPR). The value in % activation is based on the Ca^2+ signal after addition of Lys-Des-Arg^9 bradykinin (0.5 nM) or Des-Arg^9 bradykinin (100 nM). Antagonists lead to a suppression of the Ca^2+ influx following administration of the agonist. The % inhibition in comparison with the maximum achievable inhibition is indicated.
1. Functional Investigation on the Bradykinin 1 Receptor (B1R) The agonistic or antagonistic action of substances can be determined on the bradykinin 1 receptor (B1R) of the human and rat species with the following assay. According to this assay, the Ca^2+ inflow through the channel is quantified with the aid of a Ca^2+-sensitive dye (Fluo-4 type, Molecular Probes Europe BV, Leiden, Netherlands) in a fluorescent imaging plate reader (FLIPR, Molecular Devices, Sunnyvale, USA). 2. Method: Chinese hamster ovary cells (CHO K1 cells) which are stably transfected with the human B1R gene (hB1R cells) or the B1R gene of the rat (rB1R cells) are used. For functional investigations these cells are plated-out onto black 96-well plates with a clear base (BD Biosciences, Heidelberg, Germany or Greiner, Frickenhausen, Germany) in a density of 20,000-35,000 cells/well. Overnight the cells are incubated at 37° C. and 5% CO2 in culture medium (hB1R cells: Ham's Nutrient Mixture F12, Gibco Invitrogen GmbH, Karlsruhe, Germany or DMEM, Sigma-Aldrich, Taufkirchen, Germany; rB1R cells: D-MEM/F12, Gibco Invitrogen, Karlsruhe, Germany) with 10 vol. % FBS (foetal bovine serum, Gibco Invitrogen GmbH, Karlsruhe, Germany or PAN Biotech GmbH, Aidenbach, Germany).
On the following day the cells are loaded with 2.13 μM Fluo-4 (Molecular Probes Europe BV, Leiden, Netherlands) in HBSS buffer (Hank's buffered saline solution, Gibco Invitrogen GmbH, Karlsruhe, Germany) with 2.5 mM probenecid (Sigma-Aldrich, Taufkirchen, Germany) and 10 mM HEPES (Sigma-Aldrich, Taufkirchen, Germany) for 60 min at 37° C. The plates are subsequently washed twice with HBSS buffer, and HBSS buffer which additionally contains 0.1% BSA (bovine serum albumin; Sigma-Aldrich, Taufkirchen, Germany), 5.6 mM glucose and 0.05% gelatine (Merck KGaA, Darmstadt, Germany) is added. After a further incubation of 20 minutes at RT, the plates are inserted into the FLIPR for Ca^2+ measurement. Alternatively they are washed with buffer A (15 mM HEPES, 80 mM NaCl, 5 mM KCl, 1.2 mM CaCl2, 0.7 mM MgSO4, 2 g/l glucose, 2.5 mM probenecid) and loaded with buffer A with added 2.5 μM Fluo-4 and 0.025% Pluronic F127 (Sigma-Aldrich, Taufkirchen, Germany). The cells are then washed twice with buffer A and incubated for 30 minutes with buffer A, which additionally contains 0.05% BSA and 0.05% gelatine, at RT and then used for Ca^2+ measurement in the FLIPR. The Ca^2+-dependent fluorescence is measured here before and after addition of substances (λex=488 nm, λem=540 nm). The quantification is performed by measuring the highest fluorescence intensity (FC, fluorescence counts) over time.
The FLIPR protocol comprises two additions of substance. Test substances (10 μM) are first pipetted onto the cells and the Ca^2+ inflow is compared with the control (hB1R: Lys-Des-Arg^9 bradykinin >=50 nM; rB1R: Des-Arg^9 bradykinin 10 μM). The value in % activation based on the Ca^2+ signal after addition of Lys-Des-Arg^9 bradykinin (>=50 nM) or Des-Arg^9 bradykinin (10 μM) is obtained therefrom. After incubation for 10-20 minutes, Lys-Des-Arg^9 bradykinin (hB1R) or Des-Arg^9 bradykinin (rB1R) is applied in the EC80 concentration and the inflow of Ca^2+ is likewise determined.
Antagonists lead to a suppression of the Ca^2+ inflow. The % inhibition in comparison with the maximum achievable inhibition is calculated. […]

In another test the target is T2, B1R of the rat (Rattus norvegicus, UniProt P97583).
T2 construct: expressed in transfected cells; host or cells: CHO K1 cells (Chinese hamster ovary), stably transfected
T2 sequence (P97583 1-337): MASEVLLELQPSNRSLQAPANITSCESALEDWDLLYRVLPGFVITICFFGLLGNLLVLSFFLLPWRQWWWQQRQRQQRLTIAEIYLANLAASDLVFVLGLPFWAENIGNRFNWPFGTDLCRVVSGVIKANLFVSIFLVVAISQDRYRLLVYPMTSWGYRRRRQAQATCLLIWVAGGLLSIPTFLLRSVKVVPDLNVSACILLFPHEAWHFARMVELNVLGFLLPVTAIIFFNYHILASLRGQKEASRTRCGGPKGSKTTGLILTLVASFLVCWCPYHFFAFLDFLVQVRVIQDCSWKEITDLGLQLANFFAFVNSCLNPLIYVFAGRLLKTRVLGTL
As to the kind of experiment: FLIPR Ca2+ functional assay, B1R antagonism, rat B1R in CHO K1 cells. It is filed as cell-based. As to conditions: test substance 10 μM; rB1R CHO K1 cells; agonist Des-Arg9 bradykinin at EC80; % of maximum achievable inhibition. The method in brief: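 IC50 values come from varied compound concentrations applied 10-20 min before an EC80 agonist challenge, with Des-Arg9 bradykinin for rat and Lys-Des-Arg9 bradykinin for human receptor. Ca2+ influx in Fluo-4-loaded CHO K1 transfectants was measured by FLIPR peak fluorescence. Data are % inhibition vs maximum, n=2-3, N>=2.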

In the case of `Cc1cccc(Cl)c1S(=O)(=O)N1CCn2cccc2C1COCC(=O)N(C)CCC1CCN(c2ccncc2)CC1` (centres unmarked) [Example 16, 2-((2-(2-Chloro-6-methylphenylsulfonyl)-1,2,3,4-tetrahydropyrrolo[1,2-a]pyrazin-1-yl)methoxy)-N-methyl-N-(2-(1-(pyridin-4-yl)piperidin-4-yl)ethyl)acetamide], the inhibition at 10 µM at human B1R amounted to 99.9%; at B1R of the rat it was 98.5%.

As for `COc1cc(C)c(S(=O)(=O)N2CCn3cccc3C2CC(=O)NC2CCNCC2(C)C)c(C)c1` (centres unmarked) [Example 17, N-(3,3-Dimethylpiperidin-4-yl)-2-(2-(4-methoxy-2,6-dimethylphenylsulfonyl)-1,2,3,4-tetrahydropyrrolo[1,2-a]pyrazin-1-yl)acetamide], the results for the inhibition at 10 µM on human B1R and on B1R of the rat were 97.4% and 99.2%, respectively.

As for `COc1cc(C)c(S(=O)(=O)N2CCn3cccc3C2CC(=O)N2CCC3(CC2)CCN(c2ccncc2)C3)c(C)c1` (centres unmarked) [Example 18, 2-(2-(4-Methoxy-2,6-dimethylphenylsulfonyl)-1,2,3,4-tetrahydro-pyrrolo[1,2-a]pyrazin-1-yl)-1-(2-(pyridin-4-yl)-2,8-diazaspiro[4.5]decan-8-yl)-ethanone], the inhibition at 10 µM is 99.9% on human B1R and 94.8% on B1R of the rat.

On to `O=C(COCC1c2cccn2CCN1S(=O)(=O)c1ccccc1C(F)(F)F)N1CCC2(CC1)CCN(c1ccncc1)C2` (centres unmarked) [Example 21, 1-(2-(Pyridin-4-yl)-2,8-diazaspiro[4.5]decan-8-yl)-2-((2-(2-(trifluoromethyl)phenylsulfonyl)-1,2,3,4-tetrahydropyrrolo[1,2-a]pyrazin-1-yl)methoxy)ethanone], for which the inhibition at 10 µM was found to be 100% at human B1R and 113% on B1R of the rat.

Turning to `COc1cc(C)c(S(=O)(=O)N2CCn3cccc3C2COCC(=O)N2CCC3(CCNC3)CC2)c(C)c1` (centres unmarked) [Example 22, 2-((2-(4-Methoxy-2,6-dimethylphenylsulfonyl)-1,2,3,4-tetrahydro-pyrrolo[1,2-a]pyrazin-1-yl)methoxy)-1-(2,8-diazaspiro[4.5]decan-8-yl)ethanone], the results for the inhibition at 10 µM on human B1R and at B1R of the rat were 99.6% and 113%, respectively.

In the case of `COc1cc(C)c(S(=O)(=O)N2CCn3cccc3C2COCC(=O)N2[C@@H]3CC[C@H]2C[C@H](Oc2ccncc2)C3)c(C)c1` (stereo partly drawn) [Example 23, 2-((2-(4-Methoxy-2,6-dimethylphenylsulfonyl)-1,2,3,4-tetrahydropyrrolo[1,2-a]pyrazin-1-yl)methoxy)-1-((1R,3S,5S)-3-(pyridin-4-yloxy)-8-azabicyclo[3.2.1]octan-8-yl)ethanone], the inhibition at 10 µM at human B1R was determined as 100%; at B1R of the rat it was 108%.

Consider `COc1cc(C)c(S(=O)(=O)N2CCn3cccc3C2COCC(=O)N2CCC(OCCN3CCCC3)(c3cccnc3)CC2)c(C)c1` (centres unmarked) [Example 24, 2-((2-(4-Methoxy-2,6-dimethylphenylsulfonyl)-1,2,3,4-tetrahydropyrrolo[1,2-a]pyrazin-1-yl)methoxy)-1-(4-(pyridin-3-yl)-4-(2-(pyrrolidin-1-yl)ethoxy)piperidin-1-yl)ethanone], for which the inhibition at 10 µM was 99.9% at human B1R and 114% on B1R of the rat.

As to `Cc1cc(S(=O)(=O)N2CCn3cccc3C2CC(=O)NC2CCc3cc(CN4CCCCC4)ccc3C2)c(C)cc1Cl` (centres unmarked) [Example 25, 2-(2-(4-chloro-2,5-dimethylphenylsulfonyl)-1,2,3,4-tetrahydropyrrolo[1,2-a]pyrazin-1-yl)-N-(6-(piperidin-1-ylmethyl)-1,2,3,4-tetrahydronaphthalen-2-yl)acetamide], the results for the inhibition at 10 µM at human B1R and on B1R of the rat were 96% and 103%, respectively.

For `O=C(CC1c2cccn2CCN1S(=O)(=O)c1ccc(Cl)c(Cl)c1)NC1CCc2cc(CN3CCCCC3)ccc2C1` (centres unmarked) [Example 26, 2-(2-(3,4-dichlorophenylsulfonyl)-1,2,3,4-tetrahydropyrrolo[1,2-a]pyrazin-1-yl)-N-(6-(piperidin-1-ylmethyl)-1,2,3,4-tetrahydronaphthalen-2-yl)acetamide], the inhibition at 10 µM on human B1R is 98.9%; at B1R of the rat, 102%.

Take `O=C(CC1c2cccn2CCN1S(=O)(=O)c1ccccc1)NC1CCc2cc(CN3CCCCC3)ccc2C1` (centres unmarked) [Example 27, 2-(2-(phenylsulfonyl)-1,2,3,4-tetrahydropyrrolo[1,2-a]pyrazin-1-yl)-N-(6-(piperidin-1-ylmethyl)-1,2,3,4-tetrahydronaphthalen-2-yl)acetamide]: the figures for the inhibition at 10 µM on human B1R and on B1R of the rat were 100% and 102%, respectively.

`O=C(CC1c2cccn2CCN1S(=O)(=O)c1cccc(Cl)c1Cl)NC1CCc2cc(CN3CCCCC3)ccc2C1` (centres unmarked) [Example 28, 2-(2-(2,3-dichlorophenylsulfonyl)-1,2,3,4-tetrahydropyrrolo[1,2-a]pyrazin-1-yl)-N-(6-(piperidin-1-ylmethyl)-1,2,3,4-tetrahydronaphthalen-2-yl)acetamide]: the inhibition at 10 µM on human B1R is 99.5%; at B1R of the rat, 100%.

On to `Cc1ccc(S(=O)(=O)N2CCn3cccc3C2CC(=O)NC2CCc3cc(CN4CCCCC4)ccc3C2)cc1` (centres unmarked) [Example 29, N-(6-(piperidin-1-ylmethyl)-1,2,3,4-tetrahydronaphthalen-2-yl)-2-(2-tosyl-1,2,3,4-tetrahydropyrrolo[1,2-a]pyrazin-1-yl)acetamide], for which the figures for the inhibition at 10 µM on human B1R and at B1R of the rat were 99.8% and 102%, respectively.

Take `O=C(CC1c2cccn2CCN1S(=O)(=O)c1cccc(C(F)(F)F)c1)NC1CCc2cc(CN3CCCCC3)ccc2C1` (centres unmarked) [Example 30, N-(6-(piperidin-1-ylmethyl)-1,2,3,4-tetrahydro-naphthalen-2-yl)-2-(2-(3-(trifluoromethyl)-phenylsulfonyl)-1,2,3,4-tetrahydropyrrolo-[1,2-a]pyrazin-1-yl)acetamide]: the values for the inhibition at 10 µM on human B1R and at B1R of the rat were 99.8% and 102%, respectively.

In general, inhibition refers to the drop in the measured response relative to a control, in per cent.

The values above are taken from patent US8158628B2, “Sulfonylated 1,2,3,4-tetrahydropyrrolo[1,2-a]pyrazine compounds and their use as pharmaceuticals” (Gruenenthal GmbH, priority 2009, dated 2012).
